# Source: publication PMC12190659, “A Near-Infrared Fluorescent Probe for Specific Imaging of Lymph Node Metastases in Ovarian Cancer via Active Targeting of the Gonadotropin-Releasing Hormone Receptor” (Biomolecules, 2025)
# Entries after “also recorded” stand apart in the source; their conditions may differ.
# Columns and labels:
# [1] = tested on: lymphatic metastases in early-stage ovarian cancer; set-up: method as in PMID 38006759; conditions: compared with systematic lymphadenectomy; cited from earlier work
# Excerpt: Lymph node metastases are commonly observed in advanced ovarian cancer and are associated with a poor survival rate. Systematic lymphadenectomy seems necessary to achieve complete tumor reduction. […] In a prospectively randomized, controlled trial of lymphadenectomy in patients with primary ovarian cancer (FIGO stage IIB through IV) with macroscopically complete resection and clinically negative lymph nodes (LION trial), systematic pelvic and p ...
# [2] = tested on: folate receptor alpha; conditions: cited from earlier work
# Excerpt: Real-time guidance provided by intraoperative fluorescence imaging helps improve the resection rate of tumors. Over the past two decades, researchers have attempted to develop tumor-specific fluorophores for intraoperatively detecting ovarian cancer. Pafolacianine (OTL38), a fluorescent tracer that targets folate receptor alpha, is the first FDA-approved agent for fluorescence-guided ovarian cancer surgery. In a phase III study (NCT03180307), additional cancer lesions were identified in 33% of patients with known or suspected ovarian cancer who were scheduled to undergo cytored ...
# [3] = UV-visible absorption and fluorescence emission spectra; assay type: physicochemical; conditions: DMSO solution
# Protocol: The probe GnRHa-PEG-Rh760 was synthesized as shown in the scheme in Figure 1A. The NIR fluorophore Rh760 and its derivatives Rh760-PAZ and Rh760-GA were synthesized as previously reported. All probes were synthesized by Guoping Pharmaceutical (Hefei, China). Briefly, the sequence of the GnRHa peptide (D-2-Nal-D-4-Cl-Phe-D-3-Pal-Ser-Tyr-D-Cit-Leu-Arg-Pro-D-Ala-NH2) was prepared via the standard Fmoc solid-phase peptide synthesis method. After peptide chain coupling, piperidine was added, and the mixture was allowed to react for 20 min to remove Fmoc. Then, Fmoc-PEG2000-COOH and Rh760 were added in sequence and allowed to react until the resin test was colorless. The resin was washed with methanol and then shaken for 2 h with cutting fluid. The resulting reaction mixture was precipitated with ice-cold ether, yielding a blue–green solid. PEG-Rh760 without GnRHa peptide modification was synthesized as the control. The final products were evaluated by mass spectrometry (MS). The UV–visible absorption spectra were measured with a LAMBDA 750 spectrometer (PerkinElmer, Waltham, USA), and the fluorescence emission spectra were measured with a QuantaMaster 40 fluorospectrometer in DMSO solution.
# [4] = tested on: subcutaneous A2780 (GnRHR-positive) ovarian cancer; test: In vivo NIR fluorescence imaging, subcutaneous xenograft model; set-up: species or system BALB/c nude mice; conditions: 2.0 mg/kg, tail vein, n = 3
# Protocol: (§1) Mouse models with subcutaneous xenografts: A total of 5 × 10^6 A2780 cells were subcutaneously injected into the flanks of the mice. The tumors were allowed to grow until their diameter reached approximately 5 mm before treatment.
# (§2) The tumor-bearing mice were injected with GnRHa-PEG-Rh760 at a dose of 2.0 mg/kg body weight (n = 3). PEG-Rh760 was used as a non-targeted control probe. The probes were formulated using phosphate buffered saline (PBS) solutions with a pH of 7.4. For mice with subcutaneous xenografts and lymph node metastasis, the probe was administered via tail vein injection. For mice with peritoneal metastasis, the probe was injected intraperitoneally into the lower right abdominal region. In vivo NIR fluorescence imaging (Ex/Em = 740 nm/790 nm) was performed at different time points post-injection via the IVIS Lumina K Imaging system (PerkinElmer, Waltham, USA). Moreover, tumors, lymph nodes, and major organs were immediately dissected from sacrificed mice and imaged under NIR fluorescence. The fluorescence signals were quantified as the average radiant efficiency ([p/s/cm^2/sr]/[μW/cm^2]) via Living Image software (version 4.5, PerkinElmer, Waltham, USA).
# [5] = tested on: subcutaneous A2780 ovarian cancer; test: Ex vivo fluorescence biodistribution, subcutaneous xenograft model; assay type: in vivo, BALB/c nude mice
# Protocol: as §1, §2
# Figure S1 Mass spectra of GnRHa-PEG-Rh760 (A) and PEG-Rh760 (B).
# Figure S2 Biodistribution of GnRHa-PEG-Rh760 in mice bearing subcutaneous A2780 ovarian tumors. The mice were injected with GnRHa-PEG-Rh760 via the tail vein and monitored for 120 h. The fluorescence intensities of the ex vivo tumors and organs were measured (n=3). […]
# [6] = tested on: peritoneal metastatic A2780-luciferase ovarian cancer; test: In vivo and ex vivo NIR fluorescence imaging, peritoneal metastasis model; set-up: species or system BALB/c nude mice; conditions: 2.0 mg/kg, intraperitoneal injection, n = 3
# Protocol: Mouse models with peritoneal metastasis: A total of 1 × 10^7 A2780-luciferase cells were injected into the abdominal cavities of the mice. The tumors were allowed to grow for 2 weeks and monitored via bioluminescence imaging using the IVIS Lumina K Imaging system (PerkinElmer, Waltham, USA).
# as §2, with “For mice with peritoneal metastasis, the probe was injected intraperitoneally into the lower right abdominal region.” left out
# To verify the specificity of the NIR fluorescence imaging of GnRHa-PEG-Rh760, bioluminescence imaging of A2780-luciferase and ES-2-luciferase tumor-bearing mice was performed via the IVIS Lumina K Imaging system (PerkinElmer, Waltham, USA). […]
# [7] = biological target: T1, GnRHR (Homo sapiens, UniProt P30968); test: Confocal fluorescence microscopy of frozen tissue sections; assay type: in vivo, BALB/c nude mice
# T1 construct: mouse model bearing subcutaneous A2780 (GnRHR-positive) ovarian cancer; endogenous in cells; host or cells: A2780 and ES-2 human ovarian cancer cells grown as xenografts or lymph node metastases in BALB/c nude mice; frozen tissue sections
# T1 sequence (P30968 1-328): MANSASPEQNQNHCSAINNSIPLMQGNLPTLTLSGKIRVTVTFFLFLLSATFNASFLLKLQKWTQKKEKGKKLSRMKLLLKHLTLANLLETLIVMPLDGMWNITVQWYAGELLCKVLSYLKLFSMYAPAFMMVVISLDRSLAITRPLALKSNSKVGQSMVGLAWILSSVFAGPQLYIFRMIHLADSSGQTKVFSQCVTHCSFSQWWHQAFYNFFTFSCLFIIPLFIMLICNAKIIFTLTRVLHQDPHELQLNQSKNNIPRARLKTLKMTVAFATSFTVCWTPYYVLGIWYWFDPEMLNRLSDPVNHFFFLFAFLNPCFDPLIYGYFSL
# Excerpt: To examine the binding of probes to ovarian cancer tissues, tumors, lymph nodes and skeletal muscle were obtained from sacrificed mice and then embedded in frozen section embedding medium. The frozen tissues were sectioned, fixed and mounted. Nuclei were labeled with DAPI. Fluorescence images were captured via confocal fluorescence microscopy (TCS SP5, Leica, Wetzlar, Germany).
# [8] = tested on: lymph node metastases of ES-2-luciferase ovarian cancer; test: In vivo and ex vivo NIR fluorescence imaging, lymph node metastasis model; set-up: species or system BALB/c nude mice; conditions: 2.0 mg/kg, tail vein
# Protocol: Mouse models with lymph node metastasis: A total of 2 × 10^6 ES-2-luciferase cells were injected into the unilateral footpads of the mice. The lymph node metastases were monitored via bioluminescence imaging. Spontaneous metastases to popliteal (PO) and inguinal (IN) lymph nodes as well as occasional metastases to iliac (IL) and sciatic (SC) lymph nodes were observed after 2–3 weeks of primary tumor growth. The lymph node tissues were confirmed by histological examination and immunohistochemical staining for CK7.
# as §2
# To verify the specificity of the NIR fluorescence imaging of GnRHa-PEG-Rh760, bioluminescence imaging of A2780-luciferase and ES-2-luciferase tumor-bearing mice was performed via the IVIS Lumina K Imaging system (PerkinElmer, Waltham, USA). The mice were injected with 150 mg/kg body weight D-luciferin (YEASEN Biotech, Shanghai, China) and imaged at 15 min post-injection. Moreover, tumors, lymph nodes, and major organs were immediately dissected from sacrificed mice and imaged. Bioluminescence signals were quantified as the total flux (p/s) via Living Image software (version 4.5, PerkinElmer, Waltham, USA).
# [9] = In vivo safety evaluation; set-up: species or system mice; conditions: 2.0 mg/kg, tail vein, n = 3
# Protocol: The mice were injected with GnRHa-PEG-Rh760 at a dose of 2.0 mg/kg body weight via the tail vein (n = 3). PEG-Rh760 and vehicle were used as controls. The body weights of the mice were continuously monitored. The mice were sacrificed after 6 days. Routine blood tests were conducted to assess red blood cells (RBCs), white blood cells (WBCs), and platelets (PLTs). Blood biochemistry tests were conducted to assess alanine transaminase (ALT), aspartate transaminase (AST), blood urea nitrogen (BUN), and creatinine (CREA) levels. Tissue sections from organs, including the heart, lung, liver, spleen, kidney, and muscle, were stained with hematoxylin and eosin (H&E) for histopathological analysis.
molecule,measurement,setting,value
CC1(C)C(/C=C/C=C/C=C/C=C2\N(CCCCS(=O)(=O)O)c3ccc4ccccc4c3C2(C)C)=[N+](CCCCS(=O)(=O)[O-])c2ccc3ccccc3c21 [indocyanine green],detection rate of sentinel lymph node mapping,[1],low detection rate
"CC1(C)C(/C=C/C2=C(Oc3ccc(C[C@H](NC(=O)c4ccc(NCc5cnc6nc(N)[nH]c(=O)c6n5)cc4)C(=O)[O-])cc3)C(=C/C=C3\N(CCCCS(=O)(=O)[O-])c4ccc(S(=O)(=O)[O-])cc4C3(C)C)/CCC2)=[N+](CCCCS(=O)(=O)[O-])c2ccc(S(=O)(=O)[O-])cc21.[H+].[H+].[H+].[H+] [pafolacianine, Pafolacianine]",false-positive lymph nodes,[2]; phase I to III studies,false-positive lymph nodes were also observed
same,patients in whom additional cancer lesions were identified,"[2]; phase III study NCT03180307, versus white light assessment and palpation",33%
"D-2-Nal-D-4-Cl-Phe-D-3-Pal-Ser-Tyr-D-Cit-Leu-Arg-Pro-D-Ala-NH2 [GnRHa-PEG-Rh760, GnRHR-targeted NIR fluorescent probe: GnRH analog peptide conjugated with Rh760 fluorophore and polyethylene glycol (PEG)]",maximum absorption peak,[3],780 nm
same,maximum emission peak,[3],805 nm
same,NIR fluorescence in subcutaneous tumors,[4]; Ex/Em 740/790 nm,High fluorescence intensity
same,duration of stronger fluorescence signals in tumors post-injection,[4],up to 72 h
same,NIR fluorescence in normal ovarian tissues,[5]; ex vivo,weak NIR fluorescence
same,biodistribution (organs of accumulation),"[5]; ex vivo fluorescence of tumors and organs, 2.0 mg/kg, tail vein, monitored for 120 h, n = 3","mainly accumulated in the tumor and liver tissues; also recorded: predominant accumulation in the tumor and liver, followed by the kidneys"
same,clearance of the probe,"[5]; ex vivo fluorescence of tumors and organs, 2.0 mg/kg, tail vein, n = 3",gradually cleared at 96 h post-injection
same,tumor-to-background (skeletal muscle) fluorescence ratio,"[5]; ex vivo, 2.0 mg/kg, tail vein, n = 3",high ratio of tumor-to-background
same,NIR fluorescence signals in peritoneal metastases,[6],high fluorescent signals
same,binding in tumor sections (versus skeletal muscle),[7]; frozen sections from subcutaneous A2780 tumor-bearing mice injected with the probe,specific binding
same,binding in metastatic lymph node sections,[7]; frozen sections of lymph nodes from ES-2-luciferase model,specific binding
same,NIR fluorescence in metastatic lymph nodes,[8]; n = 3,well identified and detected by NIR fluorescence
same,NIR fluorescence in normal lymph nodes,[8]; n = 3,no NIR fluorescence signals were detected
same,average fluorescence intensity in metastatic versus normal lymph nodes,"[8]; n = 3, p < 0.05",significantly greater
same,body weight change versus control group,[9]; 6 days,No significant body weight loss
same,"hematologic analysis: RBC, WBC, PLT, ALT, AST, BUN, CREA levels",[9]; after 6 days,no significant changes
same,"histopathology (H&E) of heart, lung, liver, spleen, kidney, muscle",[9]; after 6 days,No notable tissue injury
